“Also recorded” adds a separate entry of the source.
Key:
[1] = system: p53 and acetylated p53 in MCF-7 breast adenocarcinoma cells; assay: Expression of p53 and acetylated p53 in MCF-7 cells treated with compound, with etoposide (FIG. 3); type: cell-based
Protocol: Additionally, cells were treated with the same compounds in the presence of the genotoxic agent etoposide.
(§1) Further evidence to support the selective targeting of SIRT1 and SIRT2 by these analogs came from studies in cells.

[2] = system: acetylated α-tubulin in H1299 cells; assay: Acetylated tubulin levels in H1299 cells treated with compound and Trichostatin A (FIG. 2); type: cell-based; conditions: H1299 cells, with Trichostatin A
Source text: Total tubulin was used as a loading control.
as §1

SIRT1 = target: T1, SIRT1 (Homo sapiens, UniProt Q96EB6); assay: In vitro inhibition of SIRT1 by cambinol analogs
T1 sequence (Q96EB6 1-747): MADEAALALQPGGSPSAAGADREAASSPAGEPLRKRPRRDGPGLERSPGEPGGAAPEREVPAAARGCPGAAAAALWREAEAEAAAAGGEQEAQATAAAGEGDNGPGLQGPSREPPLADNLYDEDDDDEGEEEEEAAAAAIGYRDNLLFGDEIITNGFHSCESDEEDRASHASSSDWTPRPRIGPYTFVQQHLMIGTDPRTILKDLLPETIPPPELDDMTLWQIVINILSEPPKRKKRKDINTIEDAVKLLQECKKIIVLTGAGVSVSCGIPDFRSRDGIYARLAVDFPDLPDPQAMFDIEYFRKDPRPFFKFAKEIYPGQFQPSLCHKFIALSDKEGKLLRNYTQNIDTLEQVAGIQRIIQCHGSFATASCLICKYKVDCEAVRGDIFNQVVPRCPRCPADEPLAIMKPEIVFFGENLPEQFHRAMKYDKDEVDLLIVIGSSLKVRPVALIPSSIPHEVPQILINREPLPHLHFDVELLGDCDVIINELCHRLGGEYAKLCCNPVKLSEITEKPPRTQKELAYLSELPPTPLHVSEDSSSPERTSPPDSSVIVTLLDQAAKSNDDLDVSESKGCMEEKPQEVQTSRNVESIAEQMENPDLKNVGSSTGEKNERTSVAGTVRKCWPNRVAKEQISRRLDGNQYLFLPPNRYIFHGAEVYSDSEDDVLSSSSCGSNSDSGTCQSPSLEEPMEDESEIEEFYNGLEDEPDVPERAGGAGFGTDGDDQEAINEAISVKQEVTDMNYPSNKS

SIRT2 = target: T2, SIRT2 (Homo sapiens, UniProt Q8IXJ6); assay: In vitro inhibition of SIRT2 by cambinol analogs
T2 sequence (Q8IXJ6 1-389): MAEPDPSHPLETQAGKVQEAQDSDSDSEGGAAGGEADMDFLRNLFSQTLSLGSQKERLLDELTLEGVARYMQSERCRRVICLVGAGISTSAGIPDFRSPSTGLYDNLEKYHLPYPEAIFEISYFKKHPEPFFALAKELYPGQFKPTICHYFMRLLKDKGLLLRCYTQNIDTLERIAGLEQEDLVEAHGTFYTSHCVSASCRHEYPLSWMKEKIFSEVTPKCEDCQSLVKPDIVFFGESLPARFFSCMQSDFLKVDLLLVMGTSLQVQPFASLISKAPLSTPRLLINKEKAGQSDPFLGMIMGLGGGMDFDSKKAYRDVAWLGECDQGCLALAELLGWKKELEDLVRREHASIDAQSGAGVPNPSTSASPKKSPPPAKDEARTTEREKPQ

[3] = system: p53 and acetylated p53 in NCl H460 cancer cells; conditions: etoposide (10 μM); cited from earlier work
[4] = in the presence of etoposide (10 μM)

Row | SMILES | levels of p53 [1, 4] | levels of p53 acetylated at lysine 382 ([1]; in the presence of etoposide, compared to cambinol (1)) | acetylation of tubulin [2] | melting point [°C] | improvement in activity against SIRT1 compared with cambinol (1) (SIRT1; from IC50 values) [fold] | selectivity for SIRT1 over SIRT2 in words (SIRT1; in vitro) | IC50 (SIRT1; read-out: IC50 SIRT1, repeated at least two times) [µM] | inhibition at 60 µM (SIRT1; read-out: Inhibition at 60 μM ± SE (%) SIRT1) [%] | activity against SIRT2 in words (SIRT2; compared with cambinol (1)) | inhibition at 60 µM (SIRT2; read-out: Inhibition at 60 μM ± SE (%) SIRT2) [%] | concentration at which maximal p53 levels were observed [1, 4] [µM] | levels of p53 and acetylated p53 [3]
1 | O=c1[nH]c(=S)[nH]c(-c2ccc(Br)cc2)c1Cc1c(O)ccc2ccccc12 [Compound 6b, 6-(4-Bromo-phenyl)-5-(2-hydroxy-naphthalen-1-ylmethyl)-2-thioxo-2,3-dihydro-1H-pyrimidin-4-one] | increased p53 levels | clear increase in potency compared to cambinol (1) | did not lead to an increase in acetylation of tubulin | 282 to 287 | 4 | relatively selective inhibition of SIRT1; also recorded: selective SirT1 inhibitor | 12.7 ± 2 | 82.3 ± 1 | relative lack of activity | 9.4 ± 1 |  | 
2 | O=c1[nH]c(=S)[nH]c(-c2ccccc2)c1Cc1c(O)ccc2ccccc12 [Compound 1, 5-(2″-Hydroxy-naphthalen-1-ylmethyl)-6-phenyl-2-thioxo-2,3-dihydro-1H-pyrimidin-4-one, reference compound] | increased |  |  |  |  |  |  |  |  |  | 50 | higher levels of p53 and acetylated p53
